pIC50, pKd: −log10 of the molar value.
Experiments:
H4 = assay: cells; conditions: Homo sapiens, H4, 72 h
Description: Anti-tumor activity against human H4 cells assessed as inhibition of cell growth measured after 72 hrs by CCK-8 assay

THLE-2 = assay: cells; conditions: Homo sapiens, THLE-2, 72 h
Description: Antitumor activity against human THLE-2 cells assessed as inhibition of cell proliferation measured after 72 hrs by CCK-8 assay

PC-3 = assay: cells; conditions: Homo sapiens, PC-3, 72 h
Description: Anti-tumor activity against human PC-3 cells assessed as inhibition of cell growth measured after 72 hrs by CCK-8 assay

[1] = Clearance in BALB/c mouse at 1.2 mg/kg, iv measured upto 24 hrs by LC-MS/MS analysis; conditions: in vivo
[2] = Clearance in BALB/c mouse at 10 mg/kg, po measured upto 24 hrs by LC-MS/MS analysis; conditions: in vivo
HCCLM3 [3] = assay: cells; conditions: Homo sapiens, HCCLM3, 72 h
Description: Antitumor activity against human HCCLM3 cells assessed as inhibition of cell growth measured after 72 hrs by CCK-8 assay

Hepa 1-6 = assay: cells; conditions: Mus musculus, Hepa1-6, 72 h
Description: Antitumor activity against mouse Hepa1-6 cells assessed as inhibition of cell proliferation measured after 72 hrs by CCK-8 assay

Jurkat = assay: cells; conditions: Homo sapiens, 72 h
Description: Anti-tumor activity against human Jurkat cells assessed as inhibition of cell growth measured after 72 hrs by CCK-8 assay

MHCC97H [4] = assay: In vivo-antitumor activity against human MHCC97H cells xenografted BALB/c mouse model assessed as tumor growth inhibitor at 5 mg/kg, IG once daily measured after 31 days relative to control; conditions: po, 744 h, read-out: TGI
MEG-01 = assay: cells; conditions: Homo sapiens, MEG-01, 72 h
Description: Anti-tumor activity against human MEG-01 cells assessed as inhibition of cell growth measured after 72 hrs by CCK-8 assay

MHCC97H [5] = assay: In vivo-antitumor activity against human MHCC97H cells xenografted BALB/c mouse model assessed as tumor growth inhibitor at 10 mg/kg, IG once daily measured after 31 days relative to control; conditions: po, 744 h, read-out: TGI
MHCC97H [6] = assay: Cytotoxicity against (shRNA)-mediated B3GAT3 KO human MHCC97H cells assessed as cell viability measured after 72 hrs by CCK8 assay
Hep 3B2 = assay: cells; conditions: Homo sapiens, Hep3B, 72 h
Description: Antitumor activity against human Hep3B cells assessed as inhibition of cell proliferation measured after 72 hrs by CCK-8 assay

in vivo [7] = conditions: BALB/c, mouse, iv, 1.2 mg/kg
Description: Cmax in BALB/c mouse at 1.2 mg/kg, iv measured upto 24 hrs by LC-MS/MS analysis

NCI-H1650 = assay: cells; conditions: Homo sapiens, NCI-H1650, 72 h
Description: Anti-tumor activity against human NCI-H1650 cells assessed as inhibition of cell growth measured after 72 hrs by CCK-8 assay

in vivo [8] = conditions: BALB/c, mouse, po, 10 mg/kg
Description: Cmax in BALB/c mouse at 10 mg/kg, po measured upto 24 hrs by LC-MS/MS analysis

in vitro [9] = conditions: rat, liver microsomes
Description: Metabolic stability in rat liver microsomes assessed as half life at 0.02 uM measured upto 60 mins by LC-MS/MS analysis

in vivo [10] = conditions: BALB/c, mouse, iv, 1.2 mg/kg; remark: listed apart in the source
Description: Tmax in BALB/c mouse at 1.2 mg/kg, iv measured upto 24 hrs by LC-MS/MS analysis

Calu-3 = assay: cells; conditions: Homo sapiens, Calu-3, 72 h
Description: Anti-tumor activity against human Calu-3 cells assessed as inhibition of cell growth measured after 72 hrs by CCK-8 assay

HCCLM3 [11] = assay: In vivo-antitumor activity against human HCCLM3 cells xenografted BALB/c mouse model assessed as tumor growth inhibitor at 10 mg/kg, IG once daily measured after 31 days relative to control; conditions: HCCLM3, po, 744 h, read-out: TGI
U-251 = assay: cells; conditions: Homo sapiens, U-251, 72 h
Description: Anti-tumor activity against human U-251MG cells assessed as inhibition of cell growth measured after 72 hrs by CCK-8 assay

Huh-7 = assay: cells; conditions: Homo sapiens, Huh-7, 72 h
Description: Antitumor activity against human Huh-7 cells assessed as inhibition of cell proliferation measured after 72 hrs by CCK-8 assay

MHCC97H [12] = assay: In vivo-antitumor activity against human MHCC97H cells xenografted BALB/c mouse model assessed as tumor growth inhibitor at 20 mg/kg, IG once daily measured after 31 days relative to control; conditions: po, 744 h, read-out: TGI
HT-29 = assay: cells; conditions: Homo sapiens, HT-29, 72 h
Description: Anti-tumor activity against human HT-29 cells assessed as inhibition of cell growth measured after 72 hrs by CCK-8 assay

HCC1937 = assay: cells; conditions: Homo sapiens, HCC1937, 72 h
Description: Anti-tumor activity against human HCC1937 cells assessed as inhibition of cell growth measured after 72 hrs by CCK-8 assay

in vivo [13] = conditions: BALB/c, mouse, po, 10 mg/kg; remark: listed apart in the source
Description: Tmax in BALB/c mouse at 10 mg/kg, po measured upto 24 hrs by LC-MS/MS analysis

in vivo [14] = conditions: BALB/c, mouse, iv, 1.2 mg/kg; remark: listed apart in the source
Description: AUC in BALB/c mouse at 1.2 mg/kg, iv measured upto 24 hrs by LC-MS/MS analysis

in vivo [15] = conditions: BALB/c, mouse, po, 10 mg/kg; remark: listed apart in the source
Description: AUC in BALB/c mouse at 10 mg/kg, po measured upto 24 hrs by LC-MS/MS analysis

[16] = Half life in BALB/c mouse at 1.2 mg/kg, iv measured upto 24 hrs by LC-MS/MS analysis; conditions: in vivo
MHCC97H [17] = assay: Cytotoxicity against (shRNA)-Ctrl transfected human MHCC97H cells assessed as cell viability measured after 72 hrs by CCK8 assay
[18] = Half life in BALB/c mouse at 10 mg/kg, po measured upto 24 hrs by LC-MS/MS analysis; conditions: in vivo
in vitro [19] = conditions: human, liver microsomes
Description: Metabolic stability in human liver microsomes assessed as half life at 0.02 uM measured upto 60 mins by LC-MS/MS analysis

AGS = assay: cells; conditions: Homo sapiens, 72 h
Description: Anti-tumor activity against human AGS cells assessed as inhibition of cell growth measured after 72 hrs by CCK-8 assay

[20] = molecular target: T1, Galactosylgalactosylxylosylprotein 3-beta-glucuronosyltransferase 3 (Homo sapiens, UniProt O94766); assay: Binding affinity to biotinylated B3GAT3 (unknown origin) assessed as dissociation constant by biolayer interferometry (BLI) analysis
T1 sequence (O94766 whole entry): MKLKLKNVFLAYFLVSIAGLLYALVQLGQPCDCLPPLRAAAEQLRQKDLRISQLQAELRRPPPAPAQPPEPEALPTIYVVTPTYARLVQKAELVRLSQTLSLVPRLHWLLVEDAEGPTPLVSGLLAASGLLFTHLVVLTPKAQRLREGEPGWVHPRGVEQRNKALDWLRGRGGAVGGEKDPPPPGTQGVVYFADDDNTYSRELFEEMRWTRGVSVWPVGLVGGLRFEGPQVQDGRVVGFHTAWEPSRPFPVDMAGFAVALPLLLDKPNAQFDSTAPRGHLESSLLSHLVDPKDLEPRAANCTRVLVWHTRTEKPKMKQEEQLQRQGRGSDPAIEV

MKN-45 = assay: cells; conditions: Homo sapiens, MKN-45, 72 h
Description: Anti-tumor activity against human MKN-45 cells assessed as inhibition of cell growth measured after 72 hrs by CCK-8 assay

in vitro [21] = conditions: mouse, liver microsomes
Description: Metabolic stability in mouse liver microsomes assessed as half life at 0.02 uM measured upto 60 mins by LC-MS/MS analysis

HCCLM3 [22] = assay: cells; conditions: Homo sapiens, HCCLM3, 72 h; remark: listed apart in the source
Description: Antitumor activity against human HCCLM3 cells assessed as inhibition of cell proliferation measured after 72 hrs by CCK-8 assay

[23] = molecular target: T1, Galactosylgalactosylxylosylprotein 3-beta-glucuronosyltransferase 3; assay: Binding affinity to CM5 sensor chip immobilized human B3GAT3 assessed as dissociation constant by SPR analysis
NCI-H446 = assay: cells; conditions: Homo sapiens, NCI-H446, 72 h
Description: Anti-tumor activity against human NCI-H446 cells assessed as inhibition of cell growth measured after 72 hrs by CCK-8 assay

MHCC97H [24] = assay: cells; conditions: Homo sapiens, 72 h
Description: Antitumor activity against human MHCC97H cells assessed as inhibition of cell proliferation measured after 72 hrs by CCK-8 assay

SK-OV-3 = assay: cells; conditions: Homo sapiens, SK-OV-3, 72 h
Description: Anti-tumor activity against human SK-OV-3 cells assessed as inhibition of cell growth measured after 72 hrs by CCK-8 assay

SNU-387 = assay: cells; conditions: Homo sapiens, SNU-387, 72 h
Description: Antitumor activity against human SNU-387 cells assessed as inhibition of cell proliferation measured after 72 hrs by CCK-8 assay

THP-1 = assay: cells; conditions: Homo sapiens, THP-1, 72 h
Description: Anti-tumor activity against human THP-1 cells assessed as inhibition of cell growth measured after 72 hrs by CCK-8 assay

MHCC97H [25] = assay: cells; conditions: Homo sapiens, 72 h; remark: listed apart in the source
Description: Antitumor activity against human MHCC97H cells assessed as inhibition of cell growth measured after 72 hrs by CCK-8 assay

MDA-MB-231 = assay: cells; conditions: Homo sapiens, MDA-MB-231, 72 h
Description: Anti-tumor activity against human MDA-M8-231 cells assessed as inhibition of cell growth measured after 72 hrs by CCK-8 assay

U-937 = assay: cells; conditions: Homo sapiens, U-937, 72 h
Description: Anti-tumor activity against human U-937 cells assessed as inhibition of cell growth measured after 72 hrs by CCK-8 assay

SW-620 = assay: cells; conditions: Homo sapiens, SW-620, 72 h
Description: Anti-tumor activity against human SW620 cells assessed as inhibition of cell growth measured after 72 hrs by CCK-8 assay

K562 = assay: cells; conditions: Homo sapiens, K562, 72 h
Description: Anti-tumor activity against human K562 cells assessed as inhibition of cell growth measured after 72 hrs by CCK-8 assay

in vivo [26] = conditions: BALB/c, mouse, po, 10 mg/kg; remark: listed apart in the source
Description: Oral bioavailability in BALB/c mouse at 10 mg/kg measured upto 24 hrs by LC-MS/MS analysis

HCCLM3 [27] = assay: In vivo-antitumor activity against human HCCLM3 cells xenografted BALB/c mouse model assessed as reduction in tumor weight at 5 mg/kg, IG once daily measured after 31 days relative to control; conditions: HCCLM3, po, 744 h, read-out: INH
PLC-PRF-5 = assay: cells; conditions: Homo sapiens, PLC-PRF-5, 72 h
Description: Antitumor activity against human PLC-PRF-5 cells assessed as inhibition of cell proliferation measured after 72 hrs by CCK-8 assay

pIC50 (H4): 5.18
pIC50 (THLE-2): < 4.70
pIC50 (PC-3): 4.86
clearance at 24 h [1]: 10 mL/min/kg
CL/F at 24 h [2]: 20 mL/min/kg
pIC50 (HCCLM3 [3]): 5.21
pIC50 (Hepa 1-6): 5.21
pIC50 (Jurkat): 5.17
pIC50 (MEG-01): 4.94
pIC50 (Hep 3B2): 4.91
Cmax at 24 h (in vivo [7]): 3350 ng/mL
pIC50 (NCI-H1650): 4.67
Cmax at 24 h (in vivo [8]): 9140 ng/mL
half-life at 1 h, 0.02 µM (in vitro [9]): 25.9 min
Tmax at 24 h (in vivo [10]): 4.8 min
pIC50 (Calu-3): 4.38
pIC50 (U-251): 5.21
pIC50 (Huh-7): 4.90
pIC50 (HT-29): 5.33
pIC50 (HCC1937): 4.32
Tmax at 24 h (in vivo [13]): 13.2 min
AUC at 24 h (in vivo [14]): 1850 ng·h/mL
AUC at 24 h (in vivo [15]): 9520 ng·h/mL
half-life at 24 h [16]: 46.2 min
half-life at 24 h [18]: 251 min
half-life at 1 h, 0.02 µM (in vitro [19]): 17 min
pIC50 (AGS): 5.27
pKd [20]: 5.18
pIC50 (MKN-45): 4.86
half-life at 1 h, 0.02 µM (in vitro [21]): 37.9 min
pIC50 (HCCLM3 [22]): 4.74
pKd [23]: 5.40
pIC50 (NCI-H446): 4.94
pIC50 (MHCC97H [24]): 4.72
pIC50 (SK-OV-3): 4.01
pIC50 (SNU-387): 4.93
pIC50 (THP-1): 4.62
pIC50 (MHCC97H [25]): 5.19
pIC50 (MDA-MB-231): 4.91
pIC50 (U-937): 5.22
pIC50 (SW-620): 5.06
pIC50 (K562): 5.08
bioavailability at 24 h (in vivo [26]): 66.4%
pIC50 (PLC-PRF-5): 5.19
Compound: COC(=O)c1ccc2[nH]cc(C(=O)C(=O)NC3CCN(c4ccc(C)cc4Cl)C3=O)c2c1 (stereo unspecified)
inhibition in vivo at 5 mg/kg (MHCC97H [4]): 23.4%
inhibition in vivo at 10 mg/kg (MHCC97H [5]): 70%
pIC50 (MHCC97H [6]): 4.77
inhibition in vivo at 10 mg/kg (HCCLM3 [11]): 59%
inhibition in vivo at 20 mg/kg (MHCC97H [12]): 73.5%
pIC50 (MHCC97H [17]): 5.16
inhibition in vivo at 5 mg/kg (HCCLM3 [27]): 58.8%

From ChEMBL document CHEMBL5500417, “Discovery of Novel 2-Oxoacetamide Derivatives as B3GAT3 Inhibitors for the Treatment of Hepatocellular Carcinoma” (J Med Chem, 2024)
